Test results taken from US5021439A, “Cerebral function ameliorating agents related to Tan-950 A” (priority 1988, dated 1991).
Where two headings read alike, the source gives them in different places.

Assays:
Acute toxicity in mouse = conditions: in vivo, any administration routes (iv, ip, sc, po)
NMDA-type receptor = experiment: Binding assay of NMDA-type receptor (3H-CPP) on rat forebrain crude synaptic membrane; conditions: for IC50: 10 nM 3H-CPP, pH 7.1, 0° C., 15 min, read-out: Affinity to NMDA-type receptor (3H-CPP), IC50
From the text: (§1) The receptors of the exitatory amino acid (especially, glutamate) are classified into NMDA type, Quisqualate type and Kainate type. 3H-CPP [3-(2-carboxypiperazin-4-yl)propyl-1-[…]] as the ligand (a radio active substance which has high affinity for the receptor) for the NMDA-type-receptor, ^3 H-AMPA (DL-α-amino-3-hydroxy-5-methylisoxazole-4-propionic acid) as the ligand for the quisqualate-type-receptor, and ^3 H-kainic acid as the ligand for the kainate-type-receptor were used respectively. A sample of the crude synaptic membrane prepared from the forebrain of rat was washed 4 times by Tris hydrochloric acid buffer (pH 7.1) and kept in a freezing condition at -20° C. until its use.
(§2) Samples of the frozen crude synaptic membrane were melted and, after floating on 50 mM Tris hydrochloric acid buffer (pH 7.1), incubated for 30 minutes at 37° C. After the incubation, the synaptic membrane was centrifuged (48,000×g) and washed 3 times with 50 mM Tris hydrochloric acid buffer and used in the test.
(§3) In the binding assay of the NMDA-type-receptor, samples of the synaptic membrane were incubated in the presence or absence of a test compound together with 10 nM ^3 H-CPP in 50 mM Tris hydrochloric acid buffer (pH 7.1, 0° C.) for 15 minutes. The sediment (pellet) containing synapse membrane which was recovered by centrifugation of the incubation solution was rinsed with 50 mM Tris hydrochloric acid buffer (pH 7.1) and dissolved in 0.5 ml of Protosol® (made by New England Nuclear Inc.). In the binding assay of Quisqualate-type-receptor and Kainate-type-receptor, samples of the synapse was incubated in the presence or absence of a test compound in 5 nM ^3 H-AMPA (Quisqualate-type-receptor) or 2 nM ^3 H-Kainic acid (Kainate-type-receptor) together with 50 mM Tris hydrochloric acid buffer (pH 7.1, 0° C.) for 90 minutes. The solution was filtered with Whatman GF/B filter (Whatman®, made by Whatman Inc.) under reduced pressure and the filter was washed 3 times with 50 mM Tris hydrochloric acid buffer. The radioactivity on the filter was measured by a conventional method. The specific binding amount was determined by subtracting the non-specific binding from the total binding, taking the binding in the presence of an excessive non-radioactive L-sodium glutamate (1 mM) as the amount of the non-specfic binding, i.e., the binding to anything other than the receptor. The 50% inhibiting concentration (IC50) of the compound to be tested was determined as the concentration which inhibits 50% of the specific receptor binding of ^3 H-CPP, ^3 H-AMPA or ^3 H-kainic acid.

[1] = target: Quisqualate-type receptor; experiment: Binding assay of Quisqualate-type receptor (3H-AMPA) on rat forebrain crude synaptic membrane; conditions: for IC50: 5 nM 3H-AMPA, pH 7.1, 0° C., 90 min, read-out: Affinity to Quisqulate-type receptor (3H-AMPA), IC50; for Affinity to the Quisqualate-type-receptor (in words): summary of Table 5
From the text: as §1, §2
as §3, with “receptor.” for “receptor. The 50% inhibiting concentration (IC50) of the compound to be tested was determined as the concentration which inhibits 50% of the specific receptor binding of ^3 H-CPP, ^3 H-AMPA or ^3 H-kainic acid.”

[2] = tested on: glutamate receptor (NMDA type, Quisqualate type and Kainate type); experiment: Affinity for the glutamate receptors of the brain, 3 sub-types taken together; assay type: binding, rat; conditions: summary of Table 5
From the text: as §1, §2, §3

Solubility = assay type: physicochemical
[3] = Conversion of each component of TAN-950 in aqueous solution (HPLC); assay type: physicochemical; conditions: 60° C.
From the text: The mixture of TAN-950A - E was applied to HPLC in order to isolate each component thereof and each component was isolated as approximately single peak compound.

Kainate-type receptor = experiment: Binding assay of Kainate-type receptor (3H-kainic acid) on rat forebrain crude synaptic membrane; conditions: for Affinity to Kainate-type receptor (3H-KA), IC50: 2 nM 3H-Kainic acid, pH 7.1, 0° C., 90 min; for Affinity to the Kainate-type-receptor (in words): summary of Table 5
From the text: as §1, §2
as §3, with “receptor.” for “receptor. The 50% inhibiting concentration (IC50) of the compound to be tested was determined as the concentration which inhibits 50% of the specific receptor binding of ^3 H-CPP, ^3 H-AMPA or ^3 H-kainic acid.”

[4] = tested on: neurons of rat hippocampus; experiment: Excitatory action on neurons of rat hippocampus in vitro (CA1 spike recording in slices); assay type: cell-based; conditions: rat hippocampal slices, CA1 pyramidal cell layer, Krebs-Ringer solution 33° C., read-out: Minimum effective concentration to induce firing of hippocampus nervous cell
Description: Male Wister rats (body weight: 300 -350 g) were used in the test. After cutting the head of rats, the brain was quickly taken out and […] thickness of the sliced samples of a hippocampus was prepared by a slice cutter. These samples were incubated in a nutrient solution (Krebs-Ringer solution, 33° C.) saturated with a mixed gas of 95% of oxygen gas and 5% of carbon dioxide gas for one or more hours. The test was carried out in the perfusion cisterna with perfusing at the flow speed of 1.5 ml/min. The action potential (spike) in CA1 pyramidal cell layer of the hippocampus was recorded extracellularlly by using a glass electrode filled with 2M NaCl solution. The test compounds were added to the perfusate and the change in number of the spikes with passage of time was counted by a pulse counter and recorded on the recorder. The Krebs-Ringer's solution contains 124 mM of NaCl, 5 mM of KCl, 1.24 mM of KH2 PO4, 1.3 mM of MgSO4, 2.4 mM of CaCL2, 26 mM of […] and 10 mM of glucose.

[5] = tested on: Memory Dysfunction Induced by Cycloheximide Administration; experiment: Improvement of cycloheximide-induced memory dysfunction, passive avoidance in mice; assay type: in vivo, C57BL/b mice; conditions: for Tested Retention Time (percentage to control group), latency: i.p., twice, 30 min before acquisition and before retention test, memory impairment group = 100; for Effect on memory dysfunction / latency (in words): mouse, in vivo
Description: Experimental memory disturbance was induced by administering a protein synthesis inhibiting agent, cycloheximide to C57BL/b male mice of 5 week-age. The memory test was carried out using a passive avoidance learning equipment consisting of two chambers of dark and bright. At first, a memory acquisition process of mice was carried out. In this process, a mouse was released in the bright chamber and the guillotine type door connecting between bright and dark chambers was open. Immediately after the mouse that likes a dark place having entered into the dark chamber, said guillotine type door was closed and an electric shock of 0.4 mA was given to the mouse for 3 seconds through the floor grid. Mice learned through this process to receive electric shock from the floor once they move to the dark chamber. However, the memory formation in mice that received cycloheximide (60 mg/Kg) subcutaneously 30 minutes before this memory acquisition process becomes insufficient. The memory retention test was carried out in accordance with similar procedures with mice which received cycloheximide (memory dysfunction group) and normal mice on the next day that the memory acquisition process was carried out. A time from the release of mice in the bright chamber to the entry into the dark chamber through the guillotine type door opened was measured (latency). The latency was shorter in the memory dysfunction group and the effectiveness of the compounds was determined in terms of a degree of the prolongation of latency. The test compounds were intraperitoneally administered twice in total to the mice each 30 minutes before the memory acquisition process and the memory keeping test.
The effect of the compounds in improving a memory dysfunction was expressed as a percentage in which the latency in the memory impairment group at the memory retention test was regarded as 100, and the results are shown in Table 7.

[6] = starting material heated in aqueous solution, 1 hour

SMILES	IC50 (NMDA-type receptor) [µM]	IC50 [1] [µM]	Affinity to the Quisqualate-type-receptor (in words) [1]	Affinity to the 3 sub-type receptors (in words) [2]	Affinity to Kainate-type receptor (3H-KA), IC50 (Kainate-type receptor) [µM]	Affinity to the Kainate-type-receptor (in words) (Kainate-type receptor)	minimal effective concentration ([4]; Rattus norvegicus, Neuron) [µM]	Tested Retention Time (percentage to control group), latency ([5]; 1 mg/kg)	Tested Retention Time (percentage to control group), latency ([5]; 10 mg/kg, * in table: p < 0.05)	Effect on memory dysfunction / latency (in words) [5]	other results
N[C@@H](Cc1c[nH]oc1=O)C(=O)O [Compound 1, TAN-950A]	19	0.28	strong affinity	high affinities to the 3 sub-type receptors	3.6	strong affinity	≥ 300				LD50 (Acute toxicity in mouse): > 4000 mg/kg; Solubility in acetone (Solubility; acetone): Sparingly soluble; Solubility in chloroform (Solubility; chloroform): Sparingly soluble; Solubility in dimethylsulfoxide (Solubility; dimethylsulfoxide): Soluble; Solubility in ethyl acetate (Solubility; ethyl acetate): Sparingly soluble; Solubility in methanol (Solubility; methanol): Soluble; Solubility in water (Solubility; water): Soluble; Conversion in aqueous solution (in words) ([3]; aqueous solution): converted mainly to TAN-950B and D, but slightly to TAN-950C and E; TAN-950A in resulting substance, area percentage by HPLC [3, 6]: 63.8%; TAN-950B in resulting substance, area percentage by HPLC [3, 6]: 13.0%; TAN-950C in resulting substance, area percentage by HPLC [3, 6]: 5.7%; TAN-950D in resulting substance, area percentage by HPLC [3, 6]: 12.1%; TAN-950E in resulting substance, area percentage by HPLC [3, 6]: 3.1%; minimal effective concentration ([4]; listed as 1 (sodium salt)): 300 µM
Cc1[nH]oc(=O)c1C[C@@H](N)C(=O)O [Compound 78]	68	3.9	strong affinity	high affinities to the 3 sub-type receptors	98		≥ 30	179 percentage to control group	222 percentage to control group	prolong the latency significantly	
N[C@H](Cc1c[nH]oc1=O)C(=O)O [Compound 72]	6.2	14		high affinities to the 3 sub-type receptors	37		≥ 300	217 percentage to control group	278 percentage to control group	prolong the latency significantly	Affinity to the NMDA-type-receptor (in words) (NMDA-type receptor; summary of Table 5): high affinity; minimal effective concentration ([4]; listed as 72 (hydrochloride)): 300 µM
Cc1[nH]oc(=O)c1C[C@H](N)C(=O)O [Compound 75]	11	0.31	strong affinity	high affinities to the 3 sub-type receptors	7.3	strong affinity	≥ 1	205 percentage to control group	184 percentage to control group	prolong the latency significantly	
